Measurements published in patent US4966889A, “Treatment of inflammatory articular diseases” (Industria Farmaceutica Serono SpA, priority 1986, dated 1990).
Entries after “also recorded” stand apart in the source; their conditions may differ.

What was measured:
[1] = system: patients affected by polyarticular RA; experiment: Evaluation of efficacy of therapies in course prior to treatment; format: in vivo, human; parameters: key to Efficacy of present therapy: Nil; Scarce; Good; Excellent; details: single cases
From the text: (§1) With reference to each of the clinical cases taken into consideration, supplied below are the particulars relevant to diagnosis, evaluation of efficacy of therapies in course prior to treatment (Nil, Scarce, Good, Excellent), and finally the clinical observations after treatment with Somatostatin (SS) or with Placebo (PL).

[2] = system: patients affected by polyarticular RA (knee joint); experiment: Double-blind trial versus placebo: clinical observations and side effects; format: in vivo, human; details: at the moment of administration or in the following days; 750 micrograms into knee joint
Experimental: Clinical efficacy of Somatostatin was verified by means of a double-blind trial versus placebo.
17 patients affected by polyarticular RA were selected for the trial. Each patient was informed about the experimental nature of the treatment. The articular site chosen for the study was the knee.
In accordance with the double-blind procedure (Somatostatin versus placebo), 10 patients were treated with Somatostatin ("STILAMIN", 750 micrograms) injected inside the knee joint.
Clinical observations were carried out at time 0, each 10 minutes of the first hour, than at hourly intervals for 3 hours. A further evaluation was made after one week; during the period between the treatment and the evaluation on the seventh day, the patients filled out a table for selfevaluation. Parameters chosen were Ritchie's Index and Huskisson's Scale of Pain, evaluation of pain being made when walking, upon flexion and supine.
as §1

[3] = single drug in course prior to treatment
[4] = Piroxicam 20 mg together with 6-alpha-methylprednisolone (8 mg or 4 mg)

## COc1ccc2cc([C@H](C)C(=O)O)ccc2c1 [Naproxen]
[1]; [3]
  Efficacy of present therapy: Good
[1]; single drug in course prior to treatment, listed as Naproxene
  Efficacy of present therapy: Good and Scarce

## CN1C(C(=O)Nc2ccccn2)=C(O)c2ccccc2S1(=O)=O [Piroxicam]
[1]; [4]
  Efficacy of present therapy: Scarce
[1]; [3]
  Efficacy of present therapy: Scarce

## CC(C(=O)O)c1cccc(C(=O)c2ccccc2)c1 (centres unmarked) [Ketoprofene]
[1]; [3]
  Efficacy of present therapy: Nil

## C[C@H](N)C(=O)NCC(=O)N[C@H]1CSSC[C@@H](C(=O)O)NC(=O)[C@H](CO)NC(=O)[C@H]([C@@H](C)O)NC(=O)[C@H](Cc2ccccc2)NC(=O)[C@H]([C@@H](C)O)NC(=O)[C@H](CCCCN)NC(=O)[C@H](Cc2c[nH]c3ccccc23)NC(=O)[C@H](Cc2ccccc2)NC(=O)[C@H](Cc2ccccc2)NC(=O)[C@H](CC(N)=O)NC(=O)[C@H](CCCCN)NC1=O [Somatostatin]
[2]
  clinical side effects: No verifiable clinical side effects

## C[C@H]1C[C@@H]2[C@H]([C@@H](O)C[C@@]3(C)[C@H]2CC[C@]3(O)C(=O)CO)[C@@]2(C)C=CC(=O)C=C12 [6-alpha-methylprednisolone]
[1]; [4]
  Efficacy of present therapy: Scarce
[1]; [3]
  Efficacy of present therapy: Scarce

## CCN(CCO)CCCC(C)Nc1ccnc2cc(Cl)ccc12 (centres unmarked) [Hydroxychloroquine]
[1]; before the trial
  results of basic therapy (case history): scarce results; also recorded: Disease still in acute phase

## CC(C(=O)O)c1ccc(C(=O)c2ccccc2)s1 (centres unmarked) [Thiaprophenic Acid]
[1]; [3]
  Efficacy of present therapy: Nil and Scarce

## O=C(O)Cc1ccccc1Nc1c(Cl)cccc1Cl [Diclofenac]
[1]; [3]
  Efficacy of present therapy: Scarce
